Reference: paper PMC5931107, “Clinical pharmacodynamic/exposure characterisation of the multikinase inhibitor ilorasertib (ABT-348) in a phase 1 dose-escalation trial” (British Journal of Cancer, 2018)

Test: Dose escalation: dose-limiting toxicities and MTD
Format: in vivo
From the text: Dose escalation was first conducted in Arm I and subsequently in Arms II and III. […] The pre-specified DLT criteria included any of the following events graded according to the Common Terminology Criteria for Adverse Events (CTCAE) version 4.0 considered ‘possibly’ or ‘probably’ related to the administration of ilorasertib in cycle 1: grade 4 absolute neutrophil count (ANC) decrease for >7 days or grade ≥ 3 ANC decrease with fever; grade 4 platelet count decrease; grade ≥ 3 proteinuria; grade 4 infusion reaction; grade ≥ 3 asthenia/fatigue; grade 3 nausea/vomiting for ≥48 h or diarrhoea for ≥72 h despite maximum supportive care; grade ≥ 2 neurotoxicity; unexpected grade 2 toxicity which required dose modification or delay of ≥1 week. Given the known adverse effects of VEGFR2 inhibition, specific criteria for hypertension were included: >150/100 mm Hg despite 2 weeks of clinically appropriate intervention, or severe hypertension at any blood pressure reading defined as systolic >200 mm Hg or diastolic > 110 mm Hg, or symptomatic hypertension at any reading; and for decline in left ventricular ejection fraction included: absolute decline >20% from baseline and/or a reduction to <39%. Except for the above categories, all grade ≥ 3 adverse events (AEs) without a definitive alternative etiology were also considered DLTs. AEs detected or worsened in cycle 2 and beyond could be incorporated into dose-escalation decisions at discretion of the investigators and study team.
The MTD was to be continually re-estimated by a logistic regression model as the dose at which the predicted DLT rate would be 30%. For the three arms, dose-escalation decisions were made after the patient(s) in a cohort completed dosing in cycle 1.
In Arm I, dosing commenced at 10 mg PO QD and was escalated to 180 mg PO QD. This initial starting dose was calculated using 1/6 of the highest non-severely toxic dose in dogs converted to human equivalent dose, using body surface area scaling and assuming a 60-kg human. Because of uncertainty of food effects on pharmacokinetics and the […] schedule, treatment was administered in a fasted state. […] Enrolment to Arm I was discontinued, on the basis of the protocol-specified continual reassessment method on which MTD was to be determined. […] This schedule was selected due to the anticipated lower maximum observed plasma concentration (Cmax) and greater total exposure, and the possibility that tolerability would be improved under these conditions. Dose escalation proceeded in Arm II, starting at 40 mg PO BID, and stopped at the 340-mg PO BID dose, since this dose met the protocol criteria for exceeding the MTD. The first dose was administered in the fasted state. The second dose of the treatment day was administered at least 4 h after a small meal. […]

Nc1ncc(-c2cnn(CCO)c2)c2scc(-c3ccc(NC(=O)Nc4cccc(F)c4)cc3)c12 [ilorasertib, Ilorasertib]
Dose that met the protocol criteria for exceeding the MTD (Arm I, PO QD): 180 mg | Dose that met the protocol criteria for exceeding the MTD (Arm II, PO BID): 340 mg | Patients who experienced DLTs (human, in vivo, 1 cycle): 10% | Total number of DLTs (in vivo): ten
